Test [1] concerns HCT-116 human colorectal carcinoma cells. The test is described as follows: Cell-proliferation assay using Alamar Blue dye.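 Note: cells exposed to compound for about 4 days, then Alamar Blue added and dye fluorescence read after about 4 h, compared with medium-only control wells.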 The test is classed as cell-based. To be noted: Homo sapiens, HCT-116, HCT-116, second HCT-116 column (c8); read-out: HCT-116 (uM), cell proliferation modulatory activity. (In general: Alamar Blue is a resazurin reagent that responds to reducing activity.)
The next test deals with recombinant human PIM1 (Homo sapiens (Human), UniProt P11309). The test is described as follows: PIM-1 kinase activity in cell-free in vitro assay. To be noted: cell-free assay; for inhibition at 0.5 µM: 500 nM compound, read-out: PIM-1: % inh 500 nM. The format is biochemical.
Another test deals with Jurkat. Briefly: Cell proliferation modulatory activity, Jurkat. The test is classed as cell-based. To be noted: Homo sapiens.
A further test addresses recombinant human CK2 (Homo sapiens (Human), UniProt P68400). The test is described as follows: CK2 assay (cell-free, 33P-ATP filter plate). The format is biochemical. To be noted: 15 um ATP, cell-free assay; read-out: CK2 (15 um ATP) IC50.

Sequence of recombinant human PIM1 (P11309 whole entry): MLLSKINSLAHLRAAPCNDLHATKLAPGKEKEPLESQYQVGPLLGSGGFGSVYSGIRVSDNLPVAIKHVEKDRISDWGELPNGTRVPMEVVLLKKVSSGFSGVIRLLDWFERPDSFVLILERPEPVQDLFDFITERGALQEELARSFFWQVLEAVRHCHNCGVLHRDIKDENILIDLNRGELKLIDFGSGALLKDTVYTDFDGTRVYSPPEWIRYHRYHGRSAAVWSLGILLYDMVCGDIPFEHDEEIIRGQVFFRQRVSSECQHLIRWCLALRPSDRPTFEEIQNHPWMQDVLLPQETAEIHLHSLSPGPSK
Sequence of recombinant human CK2 (P68400 whole entry): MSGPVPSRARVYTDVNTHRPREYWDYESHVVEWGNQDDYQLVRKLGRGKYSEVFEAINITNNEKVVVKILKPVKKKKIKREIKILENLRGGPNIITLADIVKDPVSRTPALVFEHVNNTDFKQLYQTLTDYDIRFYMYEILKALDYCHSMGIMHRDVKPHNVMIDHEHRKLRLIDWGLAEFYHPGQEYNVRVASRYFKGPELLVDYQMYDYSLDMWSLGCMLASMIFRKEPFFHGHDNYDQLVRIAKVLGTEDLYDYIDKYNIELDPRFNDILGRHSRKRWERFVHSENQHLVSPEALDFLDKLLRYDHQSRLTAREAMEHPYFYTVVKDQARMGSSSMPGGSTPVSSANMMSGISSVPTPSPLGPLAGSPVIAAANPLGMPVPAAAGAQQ
Sequence of recombinant human CK2 (P67870 whole entry partner): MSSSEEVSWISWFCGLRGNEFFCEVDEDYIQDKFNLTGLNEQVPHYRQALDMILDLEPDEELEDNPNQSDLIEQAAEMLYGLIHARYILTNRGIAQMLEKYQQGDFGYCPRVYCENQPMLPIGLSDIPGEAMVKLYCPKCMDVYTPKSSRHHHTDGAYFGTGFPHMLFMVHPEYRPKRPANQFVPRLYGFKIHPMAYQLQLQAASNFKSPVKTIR

Take `COCCNc1ncc2c(n1)c(NC1CC1)nc1cc(C(=O)O)ccc12`: the figures for the IC50 (in test [1]; in the test on Jurkat; at recombinant human CK2) were > 10 µM, 13.7 µM and 13 nM, respectively. Further, the inhibition at 0.5 µM at recombinant human PIM1 came to 17.2%.

For `NCCNC(=O)c1ccc2c(c1)nc(NC1CC1)c1nc(NC3CC3)ncc12`, the IC50 is > 10 µM in test [1], 2.36 µM with Jurkat and > 750 nM at recombinant human CK2. For the same compound, the inhibition at 0.5 µM at recombinant human PIM1 turned out to be 3.79%.

In the case of `CC(Nc1ncc2c(n1)c(NC1CC1)nc1cc(C(=O)O)ccc12)c1ccccc1` (stereo not drawn), the IC50 in test [1] was > 10 µM; in the test with Jurkat it was 28.7 µM; on recombinant human CK2 it was 228 nM. Also, the inhibition at 0.5 µM on recombinant human PIM1 is -32.7%.

For `O=C(O)c1ccc2c(c1)nc(NC1CC1)c1nc(Nc3cccc(F)c3F)ncc12`, the IC50 in test [1] is > 10 µM; in the test on Jurkat, 2.38 µM; at recombinant human CK2 it was 17 nM. The inhibition at 0.5 µM on recombinant human PIM1 stood at 71.7%.

Regarding `O=C(NCc1ccccn1)c1ccc2c(c1)nc(NC1CC1)c1nc(NC3CC3)ncc12`, the IC50 in test [1] was 3.07 µM; in the test with Jurkat it was 1.95 µM; on recombinant human CK2, > 750 nM. Besides, the inhibition at 0.5 µM on recombinant human PIM1 is -17.1%.

In the case of `CC(C)OCCNc1ncc2c(n1)c(NC1CC1)nc1cc(C(=O)O)ccc12`, the IC50 was > 10 µM in test [1], > 1100 nM at recombinant human PIM1, 7.37 µM in the test on Jurkat and 64 nM at recombinant human CK2. For the same compound, the inhibition at 0.5 µM on recombinant human PIM1 was -2.46%.

As to `CNC(=O)c1ccc2c(c1)nc(NC1CC1)c1nc(NC3CC3)ncc12`, the IC50 in test [1] was 1.08 µM; in the test on Jurkat, 0.618 µM; at recombinant human CK2 it was > 750 nM. Moreover, the inhibition at 0.5 µM at recombinant human PIM1 was -16.2%.

For `CC(C)OCCCNc1ncc2c(n1)c(NC1CC1)nc1cc(C(=O)O)ccc12`, the figures for the IC50 (in test [1]; in the test on Jurkat; on recombinant human CK2) were > 10 µM, 16.6 µM and 74 nM, respectively. Besides, at recombinant human PIM1, the inhibition at 0.5 µM was -40.2%.

Regarding `CC(C)C(CO)Nc1ncc2c(n1)c(NC1CC1)nc1cc(C(=O)O)ccc12` (stereo not drawn), the IC50 in test [1] was > 10 µM; in the test with Jurkat, 44.7 µM; on recombinant human CK2, 167 nM. For the same compound, the inhibition at 0.5 µM on recombinant human PIM1 was -8.31%.

Consider `O=C(Nc1ccccc1)c1ccc2c(c1)nc(NC1CC1)c1nc(NC3CC3)ncc12`, for which the results for the IC50 (in test [1]; with Jurkat; on recombinant human CK2) were 3.16 µM, 0.989 µM and > 750 nM, respectively. The inhibition at 0.5 µM on recombinant human PIM1 is -5.17%.

`CN(C)C(=O)c1ccc2c(c1)nc(NC1CC1)c1nc(NC3CC3)ncc12`: the results for the IC50 (in test [1]; with Jurkat; at recombinant human CK2) were 1.12 µM, 0.583 µM and > 750 nM, respectively. Also, at recombinant human PIM1, the inhibition at 0.5 µM stood at 1.62%.

Take `O=C(O)c1ccc2c(c1)nc(NC1CC1)c1nc(NCCCO)ncc12`: the IC50 in test [1] is > 10 µM; in the test with Jurkat, > 50 µM; on recombinant human CK2, 164 nM. Further, the inhibition at 0.5 µM at recombinant human PIM1 is -15.9%.

As for `COCCNC(=O)c1ccc2c(c1)nc(NC1CC1)c1nc(NC3CC3)ncc12`, the figures for the IC50 (in test [1]; with Jurkat; on recombinant human CK2) were 3.87 µM, 1.64 µM and > 750 nM, respectively. For the same compound, the inhibition at 0.5 µM on recombinant human PIM1 is -16.1%.

Consider `O=C(NCCN1CCOCC1)c1ccc2c(c1)nc(NC1CC1)c1nc(NC3CC3)ncc12`, for which the IC50 in test [1] was > 10 µM; in the test on Jurkat, 1.43 µM; at recombinant human CK2, > 750 nM. For the same compound, the inhibition at 0.5 µM at recombinant human PIM1 turned out to be 2.65%.

`O=C(O)c1ccc2c(c1)nc(NC1CC1)c1nc(Nc3cccc(Cl)c3)ncc12`: the IC50 in test [1] is > 10 µM; with Jurkat, 2.17 µM; on recombinant human CK2, 95 nM. Further, the inhibition at 0.5 µM at recombinant human PIM1 came to 23.2%.

As for `CCOCCCNc1ncc2c(n1)c(NC1CC1)nc1cc(C(=O)O)ccc12`, the IC50 in test [1] is 3.64 µM; in the test on Jurkat, 2.02 µM; at recombinant human CK2, 45 nM. For the same compound, the inhibition at 0.5 µM at recombinant human PIM1 stood at 9.55%.

On to `O=C(O)c1ccc2c(c1)nc(NC1CC1)c1nc(NCC3CCCO3)ncc12` (stereo not drawn), for which the IC50 is > 10 µM in test [1], 21.5 µM in the test on Jurkat and 42 nM at recombinant human CK2. Also, the inhibition at 0.5 µM at recombinant human PIM1 stood at 10.5%.

Source of the values: patent US8168651B2, “Protein kinase modulators” (Cylene Pharmaceuticals, Inc., priority 2008, dated 2012).
